Results as given in patent publication US7671045B2, “17-phosphorous steroid derivatives useful as progesterone receptor modulators” (Janssen Pharmaceutica N.V., priority 2006, dated 2010).
Like-named read-outs stand apart in the source and are kept apart here.

Tests used:
[1] = system: A549 Human lung carcinoma cells; assay: Transient transfection and Steady Glo luciferase assay in A549 cells with dexamethasone challenge; assay type: cell-based
Experimental: Transient Transfection and Steady Glo Luciferase Assay
A549 Human lung carcinoma cells were grown in F-12K Nutrient Mixture containing 10% (v/v) fetal bovine serum (FBS; Invitrogen), 2 mM glutamine and 0.15% […] (Invitrogen)
A549 cells were split 1 to 3 in 175 cm tissue culture flask. The cells were incubated at 37° C. in CO2 incubator until the cells were 95% confluent (typically 24-30 hours).
The following solutions were prepared in sterile tubes: (a) Solution A: 1.5 μg/ml of DNA in 8.5 ml OPTI-MEM I Reduced Serum Medium. (GIBCO cat# 31985) and (b) Solution B: 6 μl/ml of DMRIE-C Reagent into […] OPTI-MEM I. The two solutions were combined and mixed gently, then incubated at room temperature for 40 minutes.
The A549 cells prepared above were washed with […] of OPTI-MEM I. The medium was removed and 17 ml of the lipid-DNA complex solution was overlayed onto cells. The cells ere then incubated for 16 h at 37° C. in CO2 incubator. The DNA-containing medium was removed and 30 ml of growth medium was added. (5% Charcoal treated FBS) After 5-6 h, the cells were seeded in a 96 well plate and the cells incubated overnight at 37° C. in CO2 incubator.
To each well was then added 5 μl of test compounds and the cells incubated at 37° C. for 10 min. 5 μL of dexamathasone (CAS [50-02-2]), a glucocorticoid agonist, solution was then added to each well for challenger and the cells incubated at 37° C. in CO2 incubator for 24 h. 100 μl of Luc-assay buffer was then added into each cell well and the cells incubated for 30 min at room temperature. A 150 μL sample from each well was then transferred into a DYNEX Microlitel plate and read on Top-counter.

[2] = system: T47D human breast cancer cells; assay: Alkaline phosphatase assay in human breast cancer cell line T47D; assay type: cell-based
Experimental: Alkaline Phosphatase Assay in Human Breast Cancer Cell Line T47D
T47D human breast cancer cells were grown in RPMI medium without phenol red (Invitrogen) containing 10% (v/v) heat-inactivated fetal bovine serum (FBS; Hyclone), 1% (v/v) penicillin-streptomycin (Invitrogen), 1% (w/v) glutamine (Invitrogen), and […] insulin (Sigma). Incubation conditions were 37° C. in a humidified 5% (v/v) carbon dioxide environment.
The cells were plated in 96-well tissue culture plates at 10,000 cells per well in assay medium [RPMI medium without phenol red (Invitrogen) containing 5% (v/v) charcoal-treated FBS (Hyclone) and 1% (v/v) penicillin-streptomycin (Invitrogen)]. Two days later, the medium was decanted and test compound or control were added at a final concentration of 0.1% (v/v) dimethyl sulfoxide in fresh assay medium. Twenty-four hours later, an alkaline phosphatase assay was performed using a SEAP kit (BD Biosciences Clontech, Palo Alto, Calif.). Briefly, the medium was decanted and the cells were fixed for 30 minutes at room temperature with 5% (v/v) formalin (Sigma). The cells were washed once with room temperature Hank's buffered saline solution (Invitrogen). Equal volumes (0.05 mL) of 1× Dilution Buffer, Assay Buffer and 1:20 substrate/enhancer mixture were then added. After 1 hour incubation at room temperature in the dark, the lysate was transferred to a white 96-well plate (Dynex) and luminescence was read using a LuminoSkan Ascent (Thermo Electron, Woburn, Mass.).

[3] = A549, 24 h, read-out: A549 IC50 (nM)
[4] = T47D, 24 h, read-out: T47D IC50 (nM)
[5] = transfected A549 cells, luciferase readout, challenged with dexamethasone (glucocorticoid agonist), 24 h, read-out: A549 IC50
[6] = T47D cells, alkaline phosphatase readout, 24 h with test compound, read-out: T47D IC50

| Structure (SMILES) | IC50 [1, 3] [nM] | IC50 [2, 4] [nM] | IC50 [1, 5] [nM] | IC50 [2, 6] [nM] |
| --- | --- | --- | --- | --- |
| CCOP(=O)(OCC)c1ccc([C@H]2C[C@@]3(C)[C@@H](CC[C@@]3(O)C#Cc3ccccc3)[C@@H]3CCC4=CC(=O)CCC4=C32)cc1 [Compound 25] | 83.8 | 38.2 | – | – |
| C=C1CCO[C@]12CC[C@H]1[C@@H]3CCC4=CC(=O)CCC4=C3[C@@H](c3ccc(P(C)(=O)O)cc3)C[C@@]12C [Compound 22, 19,24-Dinorchola-4,9,20-trien-3-one, 1723-epoxy-11-[4-(hydroxy-methyl-phosphinoyl)phenyl]-(11β,17α)-(9Cl)] | – | – | > 3000 | > 1000 |
| C=CC[C@]1(O)CC[C@H]2[C@@H]3CCC4=CC(=O)CCC4=C3[C@@H](c3ccc(P(=O)(OCC)OCC)cc3)C[C@@]21C [Compound 13] | 30.2 | 170 | – | – |
| C=CC[C@]1(O)CC[C@H]2[C@@H]3CCC4=CC(=O)CCC4=C3[C@@H](c3ccc(P(=O)(c4ccccc4)c4ccccc4)cc3)C[C@@]21C [Compound 24] | – | – | 48.2 | 762 |
| CN(C)c1ccc([C@H]2C[C@@]3(C)[C@@H](CC[C@@]3(O)C#CP(=O)(N3CCOC3=O)N3OCCC3=O)[C@@H]3CCC4=CC(=O)CCC4=C32)cc1 (stereo partly shown) [Compound 104] | – | – | 64 | 7.25 |
